Experimental data as given in patent US20100080843A1, “Natural and synthetic sulfur and selenium analogs and polymer conjugated forms thereof for the modulation of angiogenesis” (The Research Foundation of the State University Of New York …, priority 2005, published 2010).
Where “and” joins values, the source holds several entries; their conditions need not be identical. Equal values may be shown once.

Experiments:
endothelial cells = test: Inhibition of Endothelial Cell Tube Formation (Matrigel, FGF2-stimulated); assay type: cell-based, Human; conditions: for inhibition at 3 µM: Homo sapiens, Endothelial cell, read-out: Man % Inhibition +/− SD
Description: Differentiation by endothelial cells was examined using a method developed by Grant et al. (Grant et al., In Vitro Cell Dev. Biol., 27A:327-336 (1991), which is hereby incorporated by reference in its entirety). Matrigel® matrix, phenol-red free (commercially available from Becton Dickinson, Bedford, Mass.) was thawed overnight at 4° C. Using cold pipette tips, 3.0 mg/well of Matrigel® matrix was placed M a cold twenty-four-multi-well plate (Falcon). Matrigel® matrix was allowed to polymerize during incubation at 37° C. for 30 minutes.

[1] = tested on: FGF2-induced angiogenesis in chick chorioalloantoic membranes; test: Neovascularization in the Chick Chorioalloantoic Membrane (CAM), FGF2-stimulated CAM Model; assay type: in vivo; conditions: for Branch Points ± SEM: CAM; for inhibition at 10 µM: Gallus gallus, FGF2 + analog, 10 uM (Table 4), read-out: % inhibition ± SEM Branch point in CAM; for % inhibition ± SEM: CAM branch points (Table 3)
Description: In vivo neovascularization was examined by the method previously described by Auerbach et al. (Auerbach et al., J. Dev. Biol., 41:391-394 (1974), which is hereby incorporated by reference in its entirety). Ten-day old embryos were purchased from Spafas, Inc. (Preston, Conn.) and were incubated at 37° C. with 55% relative humidity. In the dark with the help of a candling lamp, a small hole was punctured in the shell concealing the air sac with a hypodermic needle. A second hole was punctured, in the shell on the broadside of the egg directly over an avascular portion of the embryonic membrane, as observed during candling. A false air sac was created beneath the second hole by the application of negative pressure to the first hole, which caused the chorioallantoic membrane (CAM) to separate from the shell. A window, approximately 1.0 cm^2, was cut in the shell over the dropped CAM with the use of a small crafts grinding wheel (Dremel, Division of Emerson Electric Company Racine, Wis.), which allowed direct, access to the underlying CAM. Filter disks of #1 filter paper (Whatman International, United Kingdom) were soaked in 3 mg/mL cortisone acetate (Sigma, St. Louis, Mo.) in a solution of 95% ethanol and water and subsequently air dried under sterile conditions. FGF2 (Life Technologies, Gaithersburg, Md.) was used to grow vessels on the CAMs of 10 day old chick embryos. Sterile filter disks adsorbed with FGF2 dissolved in PBS at 1 μg/mL were placed on growing CAMs. Sterile filter disks adsorbed with FGF2 or sulfur- or selenium-containing compounds, and polymeric forms were dissolved in PBS at 1 μg/mL were placed on growing CAM. At 24 h, test compounds or control vehicle was added directly to CAM topically.
CAM tissue directly beneath FGF2-saturated filter disk was resected from embryos treated 48 hours prior with test compound or control. Tissues were washed three times with PBS. Sections were placed in a 35-mm petri dish (Nalge Nunc, Rochester, N.Y.) and examined under a SV6 stereomicroscope (Karl Zeiss, Thornwood, N.Y.) at 50× magnification. Digital images of CAM sections adjacent to filters were collected using a 3-CCD color video camera system (Toshiba America, New York, N.Y.) and analyzed using Image-Pro Plus software (Media Cybernetics, Silver Spring, Md.).
Statistical Analysis: Statistical analysis was performed by 1-way ANOVA comparing experimental with control samples.

[2] = FGF2 + analog, all compounds tested at 3 μM, n = 3

Compound | Length(mm) ± SEM (endothelial cells; [2]) | inhibition at 3 µM (endothelial cells; [2]) | Branch Points ± SEM ([1]; FGF2 (1.0 ug/ml) + analog) | inhibition at 10 µM [1] | % inhibition ± SEM ([1]; FGF2 (1.0 ug/ml) + analog) | Length(mm) ± SEM (endothelial cells; FGF2 alone (stimulated control)) | Branch Points ± SEM ([1]; FGF2 alone, 1.0 ug/ml)
O=S1(=O)C=CC1 [Example 1] | 20.64 ± 0.68 mm | 77.9 ± 2.28% | 149 ± 8.9 | 48.9 ± 7% | – | – | –
O=S1(=O)CCCC1 [Example 2] | 24.03 ± 0.85 mm | 66.5 ± 2.87% | 141.0 ± 10.69 | 55 ± 8.53% | – | – | –
CCCCS(=O)(=O)CCCC [Example 3] | 25.41 ± 1.1 mm | 61.9 ± 3.57% | 150.88 ± 14.31 | 47.2 ± 11.4% | – | – | –
O=S1(=O)CC=CC1 [Example 4] | 25.25 ± 0.66 mm | 62.5 ± 2.24% | 131.57 ± 11.55 | 62.6 ± 9.21% | – | – | –
CS(=O)(=O)c1ccccc1 [Example 5] | 28.81 ± 1.0 mm | 50.5 ± 3.48% | 140 ± 5.2 | 37% | 37 ± 5.9% | – | –
CSCS(C)(=O)=O [Example 6] | 22.91 ± 1.70 mm | 70.3 ± 5.71% | 158.0 ± 7.08 | 25.6 ± 8.1% | – | – | –
CS(=O)(=O)C(Cl)(Cl)Cl [Example 9] | 21.95 ± 3.1 mm | 73.5 ± 10.5% | 135.83 ± 8.17 | 51 ± 9.36% | – | – | –
CS(=O)(=O)CS(C)(=O)=O [Example 12] | 31.47 ± 1.5 mm | 41.5 ± 4.93% | 144.83 ± 9.19 | 40.6 ± 10.5% | – | – | –
O=S1(=O)CC2(C1)CS(=O)(=O)C2 [Example 13] | 34.61 ± 0.24 mm | 31 ± 0.8% | 164 ± 5 | 24.7 ± 4.3% | 24 ± 4.3% | – | –
O=[Se](=O)(c1ccccc1)c1ccccc1 [Example 14] | 31.91 ± 1.8 mm | 40.1 ± 6.12% | 143.5 ± 4.7 | 41.4 ± 4.5% | – | – | –
O=S(=O)(c1ccccc1)c1ccccc1 [Example 15] | 23.43 ± 2.5 mm | 65.6 ± 8.9% | 163 ± 15 | 25 ± 13% | – | – | –
C[Se](=O)(=O)c1ccccc1 [Example 16] | 28.78 ± 0.88 mm | 46.5 ± 3.2% | – | 23.8 ± 4.9% | – | – | –
CC[Se](=O)(=O)CC [Example 17] | 30.98 ± 2.43 mm | 38.6 ± 8.7% | 146 ± 8.5 | 39.9 ± 7.3% | 40 ± 7% | – | –
C[Se](=O)c1ccccc1 (stereo not drawn) [Example 18] | 28.22 ± 0.92 mm | 48.5 ± 3.3% | 165 ± 5.7 | 39% | 23.8 ± 4.9% | – | –
CCS(=O)(=O)CC [Example 19] | 28.46 ± 25.7 mm | 47.6 ± 9.2% | 131 ± 17 | 53 ± 15% | – | – | –
O=C(O)C[Se](=O)(=O)CC(=O)O [Example 20] | 25.11 ± 3.1 mm | 62.9 ± 10.5% | 148.67 ± 11.02 | 36.3 ± 12.6% | – | – | –
FGF2: growth factor used to grow vessels on the CAMs; pro-angiogenic stimulus [reference compound] | – | – | – | – | – | 43.82 ± 3.2 mm | 180.33 ± 8.58 and 193 ± 11 and 173 ± 7.5
